Structure (SMILES): Cn1cc(C(=O)Nc2ccsc2C2CC2C2CC2)c(C(F)F)n1 (stereo not shown) [Compound 4.34, 3-difluoromethyl-1-methyl-1H-pyrazole-4-carboxylic acid (2-bicyclo-propyl-2-yl-thiophen-3-yl)amide]
- melting point: 76 to 79 °C
